Measured values reported in patent publication US5677293A, “16 unsaturated C17 heterocyclic steroids useful as steroid C17-20 lyase inhibitors” (Merrell Pharmaceuticals Inc., priority 1996, dated 1997).

Assays:
Assay type in all cases: biochemical
[1] = molecular target: T1, Cynomolgus Monkey Testicular C17-20 Lyase (Macaca fascicularis, UniProt Q2XVA1); test: Screen for time-dependent inhibition / inhibition of cynomolgus monkey testicular C17-20 lyase (microsomal preparation)
T1 construct: Microsomes are isolated from human or cynomolgus monkey tissue; from tissue; host or cells: cynomolgus monkey testis, microsomes
T1 sequence (Q2XVA1 1-508): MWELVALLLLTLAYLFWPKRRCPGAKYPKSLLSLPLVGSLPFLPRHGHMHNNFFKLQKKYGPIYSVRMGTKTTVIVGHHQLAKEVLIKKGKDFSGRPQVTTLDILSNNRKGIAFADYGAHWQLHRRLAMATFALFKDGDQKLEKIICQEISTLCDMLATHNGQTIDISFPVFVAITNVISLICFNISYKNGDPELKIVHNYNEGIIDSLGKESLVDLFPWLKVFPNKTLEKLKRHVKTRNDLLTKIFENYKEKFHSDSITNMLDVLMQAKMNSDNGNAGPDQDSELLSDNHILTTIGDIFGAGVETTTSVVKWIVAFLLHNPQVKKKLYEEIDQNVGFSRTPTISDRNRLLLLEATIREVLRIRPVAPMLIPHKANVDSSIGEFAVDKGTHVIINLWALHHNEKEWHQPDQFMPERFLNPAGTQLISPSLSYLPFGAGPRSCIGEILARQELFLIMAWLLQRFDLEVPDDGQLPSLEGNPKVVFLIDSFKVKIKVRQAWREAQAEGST
Experimental: (§1) Utilizing an in vitro assay, the activity of the compounds of formulas (I) and (II) as inhibitors of steroid C17-20 lyase are established using microsomal preparations of the enzyme from human or cynomolgus monkey testicular tissue. Human testes were acquired from therapeutic orchiectomies. Microsomes are isolated from human or cynomolgus monkey tissue. The compound to be tested is dissolved in dimethyl sulfoxide and diluted in 0.05M potassium phosphate buffer, pH 7.4, to give the desired concentrations of test compound. Assays contain an NADPH regenerating system comprised of 1 mM NADPH, 5 mM glucose-6-phosphate, 1 IU/mL glucose-6-phosphate dehydrogenase and microsomal protein in a total volume of 0.2 mL. Control assays contain all components, including dimethyl sulfoxide, but no test compound. All assays are performed in duplicate. For determination of time dependent C17-20 lyase inactivation, the test compound is incubated with 20 to 62 μg/mL microsomal protein, buffer and the NADPH regenerating system described above at 34° C. for 0 or 40 minutes. Aliquots of 180 μL are then removed and assayed for enzyme activity by addition to 7-^3 H-17α-hydroxypregnenolone (11.2 mCi/mmole; 0.2 μCi per assay) plus unlabeled 17α-hydroxypregnenolone to give a total substrate concentration of 1.0 μM or 0.3 μM per assay and are subsequently incubated at 34° C. for 6 minutes. For determination of reversible inhibition by the test compound, the reaction is initiated by the addition of substrate, 7-^3 H-17α-hydroxypregnenolone (11.2 mCi/mmole; 0.20 μCi per assay) plus unlabeled 17α-hydroxypregnenolone to yield a final concentration of 0.3 μM (=Km), to the other assay components. The complete assay is incubated at 34° C. for 6 minutes. Each assay is terminated by addition of 5 mL of chloroform/methanol (2:1). Carrier steroids representing substrates and products (17α-hydroxypregnenolone, dehydroepiandrosterone, and androst-5-ene-3β,17β-diol and 0.8 mL of distilled, deionized water are also added at this time. The steroids are extracted by the method of Moore and Wilson (Methods in Enzymol., eds. O'Malley, B. W. and Hardman, J. G. 36, 1975, pp.466-474). The organic phase containing the steroids is evaporated using nitrogen gas, the residue is dissolved in 18% tetrahydrofuran (v/v) in hexane and the steroids are separated by HPLC on an Si60 (5 μm) column (250×4 mm) using a gradient of 18-22% tetrahydrofuran (v/v) in hexane. Radioactivity in the steroid peaks is measured using a Radiometric Model HS or Model A515 Flo-One detector.
(§2) The enzyme activity for each assay is calculated from the percent conversion of substrate to products, and the results are expressed as percent inhibition of control.

[2] = molecular target: T1, Cynomolgus Monkey Testicular C17-20 Lyase; test: Screen for inhibition of cynomolgus monkey testicular C17-20 lyase by compounds of formula (II)
Experimental: as §1, §2

[3] = molecular target: T2, Human Testicular C17-20 Lyase (Homo sapiens, UniProt P05093); test: Screen for time-dependent inhibition of human testicular C17-20 lyase (microsomal preparation)
T2 construct: Microsomes are isolated from human or cynomolgus monkey tissue; from tissue; host or cells: human testes from therapeutic orchiectomies, microsomes
T2 sequence (P05093 1-508): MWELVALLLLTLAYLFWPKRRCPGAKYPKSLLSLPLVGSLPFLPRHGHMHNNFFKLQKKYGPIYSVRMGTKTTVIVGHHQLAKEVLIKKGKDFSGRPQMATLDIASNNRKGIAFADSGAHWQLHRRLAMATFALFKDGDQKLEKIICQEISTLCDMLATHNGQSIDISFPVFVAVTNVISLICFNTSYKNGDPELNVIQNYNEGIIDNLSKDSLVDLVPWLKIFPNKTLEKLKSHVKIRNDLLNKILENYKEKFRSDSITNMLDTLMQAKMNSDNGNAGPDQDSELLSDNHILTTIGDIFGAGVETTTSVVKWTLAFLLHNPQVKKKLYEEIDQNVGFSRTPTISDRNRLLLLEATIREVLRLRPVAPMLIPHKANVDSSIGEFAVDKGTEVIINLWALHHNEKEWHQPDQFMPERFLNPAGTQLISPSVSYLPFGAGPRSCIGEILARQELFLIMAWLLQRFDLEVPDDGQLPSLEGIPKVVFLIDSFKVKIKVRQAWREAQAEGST
Experimental: as §1, §2

With `C[C@]12CCC(=O)CC1=CC[C@@H]1[C@@H]2CC[C@]2(C)C(c3csc(N)n3)=CC[C@@H]12` [17-(2-amino-4-thiazolyl)-androsta-5,16-dien-3-one] as the compound, how does the inhibition at 1 µM ([1]; preincubation 0 min) read?
The inhibition at 1 µM was 66%.

And the inhibition at 10 µM ([1]; preincubation 0 min)?
The inhibition at 10 µM was 92%.

`C[C@]12CC[C@H](O)CC1=CC[C@@H]1[C@@H]2CC[C@]2(C)C(c3ccco3)=CC[C@@H]12` [17-(2-furanyl)androsta-5,16-dien-3β-ol, (3β)-17-(2-furanyl)-androsta-5,16-dien-3-ol] was tested. Which inhibition at 0.1 µM [2] did it give?
The inhibition at 0.1 µM was 10%.

What about the inhibition at 1 µM [2] of the same compound?
The inhibition at 1 µM was 72%.

Which inhibition at 0.1 µM [2] does the source give for `C[C@]12CC[C@H](O)CC1=CC[C@@H]1[C@@H]2CC[C@]2(C)C(c3cccs3)=CC[C@@H]12` [17-(2-thienyl)androsta-5,16-dien-3β-ol, (3β)-17-(2-thienyl)-androsta-5,16-dien-3-ol] here?
Its inhibition at 0.1 µM is 43%.

And the inhibition at 1 µM [2]?
Its inhibition at 1 µM is 75%.

Which results are given for `C[C@]12CC[C@H](O)CC1=CC[C@@H]1[C@@H]2CC[C@]2(C)C(c3ccoc3)=CC[C@@H]12` [17-(3-furanyl)androsta-5,16-dien-3β-ol, (3β)-17-(3-furanyl)-androsta-5,16-dien-3-ol]?
inhibition at 0.1 µM [2]: 53%; inhibition at 1 µM [2]: 91%

How did the inhibition at 0.1 µM [2] turn out when `C[C@]12CC[C@H](O)CC1=CC[C@@H]1[C@@H]2CC[C@]2(C)C(c3ccsc3)=CC[C@@H]12` [17-(3-thienyl)androsta-5,16-dien-3β-ol, (3β)-17-(3-thienyl)-androsta-5,16-dien-3-ol] was run?
Its inhibition at 0.1 µM is 21%.

What about the inhibition at 1 µM [2] of the same compound?
The inhibition at 1 µM was 42%.

How did the inhibition at 1 µM ([3]; preincubation 0 min) turn out when `C[C@]12CC[C@H](O)CC1=CC[C@@H]1[C@@H]2CC[C@]2(C)C(c3csc(N)n3)=CC[C@@H]12` [(3β)-17-(2-amino-4-thiazolyl)-androsta-5,16-dien-3-ol.HBr.CH3 CH2 OH] was run?
The inhibition at 1 µM was 44%.

And the inhibition at 10 µM ([3]; preincubation 0 min)?
Its inhibition at 10 µM is 62%.

What about the inhibition at 1 µM ([3]; preincubation 40 min) of the same compound?
The inhibition at 1 µM was 32%.

What about the inhibition at 10 µM ([3]; preincubation 40 min) of the same compound?
Its inhibition at 10 µM is 29%.

For `CNc1nc(C2=CC[C@H]3[C@@H]4CC=C5C[C@@H](O)CC[C@]5(C)[C@H]4CC[C@]23C)cs1` [(3β)-17-[2-(methylamino)-4-thiazolyl]-androsta-5,16-dien-3-ol.HBr], which inhibition at 1 µM ([1]; preincubation 0 min) is on record?
Its inhibition at 1 µM is 28%.

What about the inhibition at 10 µM ([1]; preincubation 0 min) of the same compound?
The inhibition at 10 µM was 40%.

And the inhibition at 1 µM ([1]; preincubation 40 min)?
The inhibition at 1 µM was 26%.

And the inhibition at 10 µM ([1]; preincubation 40 min)?
Its inhibition at 10 µM is 80%.
